{
  "source": "patent US6646006B2",
  "about": "“Enhancement of vascular function by modulation of endogenous nitric oxide production or activity” (The Board of Trustees of the Leland Stanford Junior …, priority 1993, dated 2003)",
  "key": {"[1]": {"parameters": "species or system human", "settings": "in vivo, po", "protocol": "(§1) The control subject population in this study included 12 normal volunteers, (10 males and 2 females), with an average age of 37±2 yrs. Normalcy was determined by a careful history, physical examination, and laboratory analysis to exclude individuals with hematologic, renal, or hepatic dysfunction or clinically evident atherosclerosis. There were 20 patients (10 males and 10 females) with hypercholesterolemia as defined by a total plasma cholesterol greater than 240 mg/dl and a LDL cholesterol level greater than 160 mg/dl. […] None of the subjects were taking diuretics, vasoactive medications, antiplatelet or hypolipidemic medications. This study was approved by the Stanford University Administrative Panel on Human Subjects in Medical Research and each subject gave written informed consent before entry into the study. Blood was drawn from each subject in the postabsorptive state.\nResults. Oral administration of L-arginine ([…] for 2 weeks) to hypercholesterolemic humans increased plasma arginine values by 60% (from […]; n=7), whereas L-arginine values in the placebo-treated (n=3) and normocholesterolemic (n=6) groups remained unchanged."}, "[2]": {"system": "hypercholesterolemic rabbits", "experiment": "Balloon angioplasty of the iliac artery in hypercholesterolemic rabbits, oral arginine", "type": "in vivo, rabbit", "description": "Methods. Twenty-eight New Zealand white rabbits were randomized into one of three dietary groups and received either normal rabbit chow, 0.5% cholesterol diet, or 0.5% cholesterol diet plus L-arginine hydrochloride (2.25% W/V) in the drinking water. After six weeks of dietary intervention, left iliac artery of each animal was subjected to a balloon angioplasty. Four weeks later, the iliac arteries were harvested for vascular reactivity studies and immunohistochemistry."}, "[3]": {"system": "human monocytes", "experiment": "Ex vivo binding of human monocytes to bEnd3 endothelial cells after oral L-arginine", "type": "in vivo", "protocol": "as §1\nWe isolated human monocytes from citrated venous blood. The blood was centrifuged and the buffy coat removed and resuspended with HBSS. The suspension was then carefully layered onto a cushion of 1.068-d Histopaque, and centrifuged. After centrifugation, the monocytes were aspirated.\nWe used the transformed endothelial cell (EC) line, bEnd3 to examine monocyte-endothelial binding ex vivo. The bEnd3 cells express endothelial adhesion molecules and bind monocytes in a cytokine-inducible fashion with kinetics similar to those observed with human umbilical vein endothelium. Monocytes were added to the wells containing the endothelial monolayers to reach a final cell number of 3×10^6/ml. In some studies, monocytes were exposed in vitro for 30 minutes to sodium nitroprusside (an NO donor) prior to the binding assay.\nThe six-well plates were transferred to a rocking platform and rocked for 30 minutes at room temperature. After 30 minutes, the cell suspension was aspirated from each well and wells were then rinsed with binding buffer to remove nonadherent monocytes. Videomicroscopic counting of adherent cells was performed using a computer aided image analysis system.\nTo confirm this effect of L-arginine treatment and to control for any experimental bias, a double-blinded, placebo-controlled, randomized study was performed. Ten hypercholesterolemic subjects were randomized (1:2) to placebo or L-arginine treatment; 6 normocholesterolemic individuals were studied in parallel to control for variation over time in the binding assay. At baseline, the adhesion of monocytes from both hypercholesterolemic groups was increased in comparison to the normocholesterolemic individuals (p<0.001). After 2 weeks of L-arginine administration, there was an absolute reduction of 53% in monocyte binding (n=7, p<0.005, baseline vs 2 weeks) (FIG. 11). By contrast, there was no significant change in the adhesiveness of monocytes isolated from hypercholesterolemic individuals treated with placebo."}, "[4]": {"settings": "two weeks after discontinuation of L-arginine"}},
  "note": "“Also recorded” adds a separate entry of the source.",
  "data": [
    {"smiles": "N=C(N)NCCC[C@H](N)C(=O)O", "note": "[L-arginine]", "values": [
      {"measurement": "increase of plasma arginine values", "setting": "[1]; human, 2 weeks", "value": 60, "unit": "%"},
      {"measurement": "plasma arginine value after treatment", "setting": "[1]; human, 2 weeks", "value": "128 ± 12", "unit": "mM"},
      {"measurement": "effect on biochemical or hematologic parameters", "setting": "[1]", "value": "no effect"},
      {"measurement": "tolerability", "setting": "[1]", "value": "well tolerated"},
      {"measurement": "intimal thickening in injured vessels", "setting": "[2]; four weeks after balloon angioplasty", "value": "reduced"},
      {"measurement": "accumulation of macrophages in the lesion", "setting": "[2]; four weeks after balloon injury, ARG vs CHOL", "value": "substantially inhibited; also recorded: significantly reduced"},
      {"measurement": "endothelium-derived NO activity (bioassay)", "setting": "[2]; iliac artery, hypercholesterolemic animals", "value": "partially restored"},
      {"measurement": "adhesiveness of monocytes compared with normal subjects", "setting": "[3]; after 2 weeks of arginine treatment", "value": "no different from those of the normal subjects"},
      {"measurement": "absolute reduction in monocyte binding", "setting": "[3]; double-blinded placebo-controlled, baseline vs 2 weeks, n=7", "value": 53, "unit": "%"},
      {"measurement": "decrease in monocyte adhesiveness", "setting": "[3]; open-label, 3 individuals, 2 weeks", "value": 38, "unit": "%"},
      {"measurement": "increase in binding vs that after 2 weeks of L-arginine therapy", "setting": "[3]; [4]", "value": "30±9", "unit": "%"},
      {"measurement": "increase in bound cells/hpf vs normocholesterolemic individuals", "setting": "[3]; [4]", "value": "34±9", "unit": "%"}
    ]}
  ]
}
